According to ChEMBL document CHEMBL3734697, “Fragment-Based Drug Design of Novel Pyranopyridones as Cell Active and Orally Bioavailable Tankyrase Inhibitors” (ACS Med Chem Lett, 2015):
In brackets after ≈: the same amount, converted by molar mass. Blank lines part the entries; values can stand above or below the compound they belong to.

How the values were obtained:
[1] = Kinetic solubility of compound by LYSA; type: physicochemical; conditions: read-out: Kinetic_solubility
[2] = Clearance in Wistar/Han rat at 0.5 mg/kg, iv administered as single bolus dose; type: ADME, organism-based; conditions: in vivo
[3] = AUC (0 to last) in C57BL/6J mouse at 5 mg/kg, po by LC/MS/MS analysis; type: ADME, organism-based; parameters: dose 5 mg/kg, time 0 - last, route oral; conditions: in vivo
[4] = Volume of distribution at steady state in C57BL/6J mouse at 1 mg/kg, iv by LC/MS/MS analysis; type: ADME, organism-based; conditions: in vivo, read-out: Vdss
[5] = Cmax in C57BL/6J mouse at 50 mg/kg, po by LC/MS/MS analysis; type: ADME, organism-based; parameters: dose 50 mg/kg, route oral; conditions: in vivo
[6] = Tmax in C57BL/6J mouse at 5 mg/kg, po by LC/MS/MS analysis; type: ADME, organism-based; conditions: in vivo
[7] = Oral bioavailability in C57BL/6J mouse at 50 mg/kg by LC/MS/MS analysis; type: ADME, organism-based; conditions: in vivo
[8] = Solubility of compound in fed-state simulated intestinal fluid; type: ADME
[9] = Solubility of compound in fasted-state simulated intestinal fluid; type: ADME
[10] = AUC (0 to last) in C57BL/6J mouse at 50 mg/kg, po by LC/MS/MS analysis; type: ADME, organism-based; parameters: dose 50 mg/kg, time 0 - last, route oral; conditions: in vivo
[11] = AUC (0 to last) in C57BL/6J mouse at 1 mg/kg, iv by LC/MS/MS analysis; type: ADME, organism-based; parameters: dose 1 mg/kg, route intravenous, time 0 - last; conditions: in vivo
[12] = Oral bioavailability in C57BL/6J mouse at 5 mg/kg by LC/MS/MS analysis; type: ADME, organism-based; conditions: in vivo
[13] = Clearance in Wistar/Han rat at 1 mg/kg, iv administered as single bolus dose; type: ADME, organism-based; conditions: in vivo
[14] = Clearance in C57BL/6J mouse at 1 mg/kg, iv by LC/MS/MS analysis; type: ADME, organism-based; conditions: in vivo
[15] = Tmax in C57BL/6J mouse at 50 mg/kg, po by LC/MS/MS analysis; type: ADME, organism-based; conditions: in vivo
[16] = Cmax in C57BL/6J mouse at 5 mg/kg, po by LC/MS/MS analysis; type: ADME, organism-based; parameters: dose 5 mg/kg, route oral; conditions: in vivo

solubility kinetic [1]: 66 µg/mL (≈ 241 µM)
Compound: CC(C)(CO)C1Cc2[nH]c(=O)c3ccccc3c2CO1 (racemic)

clearance [2]: 2 mL/min/kg
solubility kinetic [1]: < 1 µg/mL
Compound: CC(C)(C)C1Cc2[nH]c(=O)c3ccccc3c2CO1 (racemic)

AUC(0-t) [3]: 1400 ng·h/mL
Vd [4]: 1.5 L/kg
Cmax [5]: 14000 ng/mL
Tmax [6]: 15 min
bioavailability [7]: 92%
solubility [8]: 143 µg/mL (≈ 498 µM)
solubility [9]: 50 µg/mL (≈ 174 µM)
AUC(0-t) [10]: 27000 ng·h/mL
AUC(0-t) [11]: 600 ng·h/mL
bioavailability [12]: 49%
solubility kinetic [1]: 4 µg/mL (≈ 13.9 µM)
clearance [13]: 25 mL/min/kg
clearance [14]: 28 mL/min/kg
Tmax [15]: 15 min
Cmax [16]: 1600 ng/mL
Compound: Cc1cccc2c(=O)[nH]c3c(c12)COC(C(C)(C)CO)C3 (racemic)

clearance [2]: 37 mL/min/kg
solubility kinetic [1]: 5 µg/mL (≈ 20.6 µM)
Compound: CC(C)C1Cc2[nH]c(=O)c3ccccc3c2CO1 (racemic)

clearance [2]: 47 mL/min/kg
solubility kinetic [1]: 28 µg/mL (≈ 80.4 µM)
Compound: CS(=O)(=O)N1CCC(C2Cc3[nH]c(=O)c4ccccc4c3CO2)C1 (racemic)

clearance [2]: 20 mL/min/kg
solubility kinetic [1]: < 1 µg/mL
Compound: Cc1cccc2c(=O)[nH]c3c(c12)COC(C(C)C)C3 (racemic)

clearance [2]: 10 mL/min/kg
solubility kinetic [1]: 13 µg/mL (≈ 53.2 µM)
Compound: CC(C)C1Cc2[nH]c(=O)c3cccnc3c2CO1 (racemic)

solubility kinetic [1]: 13 µg/mL (≈ 35.3 µM)
Compound: O=C(C1COC1)N1CCC(C2Cc3[nH]c(=O)c4ccccc4c3CO2)CC1 (racemic)
